The target of one data set is T1, NK1 Receptor (Homo sapiens, UniProt P25103).
T1 construct: Measurement of NK1 Receptor Mediated Intracellular [Ca^2+]; Mobilization in U251 MG Cells Using FLIPR; endogenous in cells; host or cells: U251 MG cells
Description: NK1 receptor mediated intracellular [Ca2+] mobilization in U251 MG cells using FLIPR. The data set is classed as cell-based. To be noted: antagonism of Substance P (EC80), Fluo-4, read-out: NK1R mediated intracellular [Ca^2+] mobilization IC 50. A digest of the protocol: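 Fluo-4-loaded U251 MG cells preincubated with compound (0.5% DMSO final), checked 5 min for agonism, then 10 min at 37 °C before Substance P at EC80. Peak fluorescence change on FLIPR, normalized to 100 nM Aprepitant maximal response; IC50 by four-parameter logistic fit, reported as pIC50.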

Data set [1] is described as follows: Hepatic intrinsic clearance following incubation in human liver microsomes. The format is in vitro ADME. The settings on record: 0.5 μM test compound, NADPH, 0-30 min, scaled to g liver. A digest of the protocol: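 Compound incubated at 37° C with microsomes diluted to 0.55 mg/mL protein in 50 mM potassium phosphate pH 7.4 plus NADPH regenerating system; sampled 0–30 min and analysed by LC-MS/MS. Clint from ln(% parent remaining) slope, scaled to mL/min/g liver; Eh derived assuming 25.7 g/kg liver, 20.7 mL/min/kg blood flow.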

T1 sequence (P25103 whole entry): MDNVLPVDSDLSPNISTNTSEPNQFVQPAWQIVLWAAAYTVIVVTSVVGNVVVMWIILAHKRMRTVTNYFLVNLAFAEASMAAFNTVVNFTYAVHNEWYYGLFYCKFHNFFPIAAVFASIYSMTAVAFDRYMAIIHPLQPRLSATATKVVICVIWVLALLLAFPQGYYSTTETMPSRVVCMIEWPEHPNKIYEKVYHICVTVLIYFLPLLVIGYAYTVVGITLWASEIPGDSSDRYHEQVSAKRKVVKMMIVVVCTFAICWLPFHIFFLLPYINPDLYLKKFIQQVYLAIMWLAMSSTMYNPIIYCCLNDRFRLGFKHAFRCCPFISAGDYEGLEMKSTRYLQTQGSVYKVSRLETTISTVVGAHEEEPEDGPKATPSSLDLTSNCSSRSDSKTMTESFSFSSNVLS

On to `Cc1cccnc1[C@@H]1[C@@H]2CCC(=O)N2CCN1C(=O)N(C)[C@H](C)c1cc(C(F)(F)F)cc(C(F)(F)F)c1` [Compound 44, (1S,8aS)—N—((R)-1-(3,5-bis(trifluoromethyl)phenyl)ethyl)-N-methyl-1-(3-methylpyridin-2-yl)-6-oxo-hexahydropyrrolo[1,2-a]pyrazine-2(1H)-carboxamide], for which, on NK1 Receptor, the IC50 is 100 nM. Further, the “Human in vitro Clint” value in data set [1] was over 200 mL/min/g.
For `Cc1ccncc1[C@H]1[C@@H]2CCC(=O)N2CCN1C(=O)N(C)[C@H](C)c1cc(C(F)(F)F)cc(C(F)(F)F)c1` [Compound 45, (1S,8aS)—N—((R)-1-(3,5-bis(trifluoromethyl)phenyl)ethyl)-N-methyl-1-(4-methylpyridin-3-yl)-6-oxo-hexahydropyrrolo[1,2-a]pyrazine-2(1H)-carboxamide], the IC50 at NK1 Receptor stood at 0.772 nM. In addition, the “Human in vitro Clint” value in data set [1] is under 10 mL/min/g.
As to `Cc1cnccc1[C@H]1[C@@H]2CCC(=O)N2CCN1C(=O)N(C)[C@H](C)c1cc(C(F)(F)F)cc(C(F)(F)F)c1` [Compound 46, (1S,8aS)—N—((R)-1-(3,5-bis(trifluoromethyl)phenyl)ethyl)-N-methyl-1-(3-methylpyridin-4-yl)-6-oxohexahydropyrrolo[1,2-a]pyrazine-2(1H)-carboxamide], on NK1 Receptor, the IC50 was determined as 0.167 nM. Besides, in data set [1], the “Human in vitro Clint” value is under 10 mL/min/g.
Taken in the same sequence, the figures for `Cc1cscc1[C@H]1[C@@H]2CCC(=O)N2CCN1C(=O)N(C)[C@H](C)c1cc(C(F)(F)F)cc(C(F)(F)F)c1` [Compound 48] were 0.249 nM and over 200 mL/min/g.
Taken in the same sequence, the figures for `CCc1cc([C@@H](C)N(C)C(=O)N2CCN3C(=O)CC[C@H]3[C@@H]2c2cscc2C)cc(C(F)(F)F)c1` [Compound 49, (1S,8aS)—N—((R)-1-(3-ethyl-5-(trifluoromethyl)phenyl)ethyl)-N-methyl-1-(4-methylthiophen-3-yl)-6-oxohexahydropyrrolo[1,2-a]pyrazine-2(1H)-carboxamide] were 0.999 nM and over 200 mL/min/g.
Taken in the same sequence, the figures for `Cc1ccsc1[C@H]1[C@@H]2CCC(=O)N2CCN1C(=O)N(C)[C@H](C)c1cc(C(F)(F)F)cc(C(F)(F)F)c1` [Compound 50] were 0.08 nM and over 200 mL/min/g.
Turning to `CCc1cc([C@@H](C)N(C)C(=O)N2CCN3C(=O)CC[C@H]3[C@@H]2c2sccc2C)cc(C(F)(F)F)c1` [Compound 51, (1R,8aS)—N—((R)-1-(3-ethyl-5-(trifluoromethyl)phenyl)ethyl)-N-methyl-1-(3-methylthiophen-2-yl)-6-oxohexahydropyrrolo[1,2-a]pyrazine-2(1H)-carboxamide], on NK1 Receptor, the IC50 stood at 0.055 nM. The “Human in vitro Clint” value in data set [1] is over 200 mL/min/g.
Taken in the same sequence, the figures for `Cc1cc([C@@H](C)N(C)C(=O)N2CCN3C(=O)CC[C@H]3[C@@H]2c2sccc2C)cc(C(F)(F)F)c1` [Compound 52, (1R,8aS)—N-methyl-N—((R)-1-(3-methyl-5-(trifluoromethyl)phenyl)ethyl)-1-(3-methylthiophen-2-yl)-6-oxohexahydropyrrolo[1,2-a]pyrazine-2(1H)-carboxamide] were 0.353 nM and over 200 mL/min/g.
Taken in the same sequence, the figures for `C[C@H](c1cc(C(F)(F)F)cc(C(F)(F)F)c1)N(C)C(=O)N1CCN2C(=O)CC[C@H]2[C@@H]1c1cccs1` [Compound 53, (1R,8aS)—N—((R)-1-(3,5-bis(trifluoromethyl)phenyl)ethyl)-N-methyl-6-oxo-1-(thiophen-2-yl)hexahydropyrrolo[1,2-a]pyrazine-2(1H)-carboxamide] were 0.43 nM and over 200 mL/min/g.
Turning to `CCc1cc([C@@H](C)N(C)C(=O)N2CCN3C(=O)CC[C@H]3[C@@H]2c2cccs2)cc(C(F)(F)F)c1` [Compound 54, (1R,8aS)—N—((R)-1-(3-ethyl-5-(trifluoromethyl)phenyl)ethyl)-N-methyl-6-oxo-1-(thiophen-2-yl)hexahydropyrrolo[1,2-a]pyrazine-2(1H)-carboxamide], the IC50 on NK1 Receptor was 0.514 nM. Besides, the “Human in vitro Clint” value in data set [1] is over 200 mL/min/g.
Taken in the same sequence, the figures for `Cc1cc([C@@H](C)N(C)C(=O)N2CCN3C(=O)CC[C@H]3[C@@H]2c2ccsc2C)cc(C(F)(F)F)c1` [Compound 55, (1S,8aS)—N-methyl-N—((R)-1-(3-methyl-5-(trifluoromethyl)phenyl)ethyl)-1-(2-methylthiophen-3-yl)-6-oxohexahydropyrrolo[1,2-a]pyrazine-2(1H)-carboxamide] were 1.58 nM and over 200 mL/min/g.
For `CCc1cc([C@@H](C)N(C)C(=O)N2CCN3C(=O)CC[C@H]3[C@@H]2c2ccsc2C)cc(C(F)(F)F)c1` [Compound 56, (1S,8aS)—N—((R)-1-(3-ethyl-5-(trifluoromethyl)phenyl)ethyl)-N-methyl-1-(2-methylthiophen-3-yl)-6-oxohexahydropyrrolo[1,2-a]pyrazine-2(1H)-carboxamide] the same measures were 1.51 nM and over 200 mL/min/g.
As for `Cc1sccc1[C@H]1[C@@H]2CCC(=O)N2CCN1C(=O)N(C)[C@H](C)c1cc(C(F)(F)F)cc(C(F)(F)F)c1` [Compound 57, (1S,8aS)—N—((R)-1-(3,5-bis(trifluoromethyl)phenyl)ethyl)-N-methyl-1-(2-methylthiophen-3-yl)-6-oxohexahydropyrrolo[1,2-a]pyrazine-2(1H)-carboxamide], the IC50 on NK1 Receptor was 0.152 nM. For the same compound, the “Human in vitro Clint” value in data set [1] is over 200 mL/min/g.
For `Cc1ncc([C@H]2[C@@H]3CCC(=O)N3CCN2C(=O)N(C)[C@H](C)c2cc(C(F)(F)F)cc(C(F)(F)F)c2)s1` [Compound 58, (1R,8aS)—N—((R)-1-(3,5-bis(trifluoromethyl)phenyl)ethyl)-N-methyl-1-(2-methylthiazol-5-yl)-6-oxohexahydropyrrolo[1,2-a]pyrazine-2(1H)-carboxamide] the same measures were 28.6 nM and over 200 mL/min/g.
For `C[C@H](c1cc(C(F)(F)F)cc(C(F)(F)F)c1)N(C)C(=O)N1CCN2C(=O)CC[C@H]2[C@@H]1c1cncs1` [Compound 59, (1R,8aS)—N—((R)-1-(3,5-bis(trifluoromethyl)phenyl)ethyl)-N-methyl-6-oxo-1-(thiazol-5-yl)-hexahydropyrrolo[1,2-a]pyrazine-2(1H)-carboxamide] the same measures were 29.4 nM and over 200 mL/min/g.
Taken in the same sequence, the figures for `CCc1cc([C@@H](C)N(C)C(=O)N2CCN3C(=O)CC[C@H]3[C@@H]2c2c[nH]nc2C)cc(C(F)(F)F)c1` [Compound 61, (1S,8aS)—N—((R)-1-(3-ethyl-5-(trifluoromethyl)phenyl)ethyl)-N-methyl-1-(3-methyl-1H-pyrazol-4-yl)-6-oxohexahydropyrrolo[1,2-a]pyrazine-2(1H)-carboxamide] were 59 nM and over 200 mL/min/g.
For the compound `CCc1cc([C@@H](C)N(C)C(=O)N2CCN3C(=O)C(CCO)(CCO)C[C@H]3[C@@H]2c2c[nH]nc2C)cc(C(F)(F)F)c1` [Compound 62, (1S,8aS)—N—((R)-1-(3-ethyl-5-(trifluoromethyl)phenyl)ethyl)-7,7-bis(2-hydroxyethyl)-N-methyl-1-(3-methyl-1H-pyrazol-4-yl)-6-oxohexahydropyrrolo[1,2-a]pyrazine-2(1H)-carboxamide], on NK1 Receptor, the IC50 was determined as 1.07 nM. The “Human in vitro Clint” value in data set [1] worked out at 115 mL/min/g.
For `Cc1cc([C@@H](C)N(C)C(=O)N2CCN3C(=O)C(CCO)(CCO)C[C@H]3[C@@H]2c2c[nH]nc2C)cc(C(F)(F)F)c1` [Compound 63, (1S,8aS)-7,7-bis(2-hydroxyethyl)-N-methyl-1-(3-methyl-1H-pyrazol-4-yl)-N—((R)-1-(3-methyl-5-(trifluoromethyl)phenyl)ethyl)-6-oxo-hexahydropyrrolo[1,2-a]pyrazine-2(1H)-carboxamide] the same measures were 9.29 nM and 51 mL/min/g.
As to `Cc1nn(C)cc1[C@H]1[C@@H]2CCC(=O)N2CCN1C(=O)N(C)[C@H](C)c1cc(C(F)(F)F)cc(C(F)(F)F)c1` [Compound 64, (1S,8aS)—N—((R)-1-(3,5-bis(trifluoromethyl)phenyl)ethyl)-1-(1,3-dimethyl-1H-pyrazol-4-yl)-N-methyl-6-oxohexahydropyrrolo[1,2-a]pyrazine-2(1H)-carboxamide], the IC50 on NK1 Receptor amounted to 1.23 nM. Further, the “Human in vitro Clint” value in data set [1] was 67 mL/min/g.
For `Cc1cc([C@@H](C)N(C)C(=O)N2CCN3C(=O)CC[C@H]3[C@@H]2c2cccc(C)c2C)cc(C(F)(F)F)c1` [Compound 65] the same measures were 0.365 nM and over 200 mL/min/g.
As for `Cc1c(Cl)cccc1[C@H]1[C@@H]2CCC(=O)N2CCN1C(=O)N(C)[C@H](C)c1cc(C(F)(F)F)cc(C(F)(F)F)c1` [Compound 66, (1S,8aS)—N—((R)-1-(3,5-bis(trifluoromethyl)phenyl)ethyl)-1-(3-chloro-2-methylphenyl)-N-methyl-6-oxohexahydropyrrolo[1,2-a]pyrazine-2(1H)-carboxamide], on NK1 Receptor, the IC50 was 0.14 nM. Also, the “Human in vitro Clint” value in data set [1] was 51 mL/min/g.
Taken in the same sequence, the figures for `CCc1ccccc1[C@H]1[C@@H]2CCC(=O)N2CCN1C(=O)N(C)[C@H](C)c1cc(C(F)(F)F)cc(C(F)(F)F)c1` [Compound 68, N—((R)-1-(3,5-bis(trifluoromethyl)phenyl)ethyl)-1-(2-ethylphenyl)-N-methyl-6-oxohexahydropyrrolo[1,2-a]pyrazine-2(1H)-carboxamide] were 0.26 nM and over 200 mL/min/g.
